Test results taken from ChEMBL document CHEMBL4364344, “Design, synthesis and evaluation of activity and pharmacokinetic profile of new derivatives of xanthone and piperazine in the central nervous system” (Bioorg Med Chem Lett, 2019).
Each block holds one compound with its values, some of them ahead of it. Active and inactive are the calls of the source. The calls are words filed in the database; no cut-off is given here.

Experiments:
[1] = Terminal half life in CD-1 mouse plasma at 5 mg/kg, ip measured up to 480 mins by LC/ESI-MS/MS analysis; assay type: ADME, organism-based; details: read-out: beta t1/2
[2] = Ratio of drug uptake in CD-1 mouse brain to plasma at 5 mg/kg, ip measured up to 480 mins by LC/ESI-MS/MS analysis; assay type: ADME, organism-based; details: read-out: BPR
[3] = Mutagenicity in Salmonella typhimurium TA100 at 50 ug/plate preincubated for 20 mins followed by addition of top agar and measured after 48 hrs by Ames test; assay type: toxicity; details: salmonella enterica subsp. enterica serovar typhimurium
[4] = system: Mus musculus; experiment: Antidepressant-like activity in albino Swiss CD-1 mouse assessed as reduction in immobility at 5 mg/kg, ip administered 30 mins prior to test and measured after 6 mins by force swim test relative to control; assay type: functional; design: scale not given: the % may be the effect or the level left
[5] = Cmax in CD-1 mouse brain at 5 mg/kg, ip measured up to 480 mins by LC/ESI-MS/MS analysis; assay type: ADME, organism-based; design: dose 5 mg/kg, route intraperitoneal
[6] = Tmax in CD-1 mouse brain at 5 mg/kg, ip measured up to 480 mins by LC/ESI-MS/MS analysis; assay type: ADME, organism-based
[7] = Mutagenicity in Salmonella typhimurium TA98 at 5 ug/plate preincubated for 20 mins followed by addition of top agar and measured after 48 hrs by Ames test; assay type: toxicity; details: salmonella enterica subsp. enterica serovar typhimurium
[8] = Tmax in CD-1 mouse plasma at 5 mg/kg, ip measured up to 480 mins by LC/ESI-MS/MS analysis; assay type: ADME, organism-based
[9] = Apparent clearance in CD-1 mouse plasma at 5 mg/kg, ip measured up to 480 mins by LC/ESI-MS/MS analysis; assay type: ADME, organism-based
[10] = Cmax in CD-1 mouse plasma at 5 mg/kg, ip measured up to 480 mins by LC/ESI-MS/MS analysis; assay type: ADME, organism-based; design: dose 5 mg/kg, route intraperitoneal
[11] = Mutagenicity in Salmonella typhimurium TA100 preincubated for 20 mins followed by addition of top agar and measured after 48 hrs by Ames test; assay type: toxicity; details: salmonella enterica subsp. enterica serovar typhimurium
[12] = Apparent volume of distribution in CD-1 mouse plasma at 5 mg/kg, ip measured up to 480 mins by LC/ESI-MS/MS analysis; assay type: ADME, organism-based
[13] = Drug metabolism in mouse liver microsomes assessed as metabolite formation by measuring retention time at 20 uM after 30 to 60 mins in presence of NADP by UPLC/MS analysis; assay type: ADME, Microsome
[14] = Mutagenicity in Salmonella typhimurium TA100 at 5 ug/plate preincubated for 20 mins followed by addition of top agar and measured after 48 hrs by Ames test; assay type: toxicity; details: salmonella enterica subsp. enterica serovar typhimurium
[15] = Mutagenicity in Salmonella typhimurium TA102 at 50 ug/plate preincubated for 20 mins followed by addition of top agar and measured after 48 hrs by Ames test; assay type: toxicity; details: salmonella enterica subsp. enterica serovar typhimurium
[16] = AUC (0 to total) in CD-1 mouse brain at 5 mg/kg, ip measured up to 480 mins by LC/ESI-MS/MS analysis; assay type: ADME, organism-based; details: in vivo, 8 h
[17] = Mutagenicity in Salmonella typhimurium TA100 at 500 ug/plate preincubated for 20 mins followed by addition of top agar and measured after 48 hrs by Ames test; assay type: toxicity; details: salmonella enterica subsp. enterica serovar typhimurium
[18] = AUC (0 to t) in CD-1 mouse plasma at 5 mg/kg, ip measured up to 480 mins by LC/ESI-MS/MS analysis; assay type: ADME, organism-based; design: dose 5 mg/kg, time < 8 hr, route intraperitoneal
[19] = Terminal half life in CD-1 mouse brain at 5 mg/kg, ip measured up to 480 mins by LC/ESI-MS/MS analysis; assay type: ADME, organism-based; details: read-out: beta t1/2
[20] = Mutagenicity in Salmonella typhimurium TA102 at 5 ug/plate preincubated for 20 mins followed by addition of top agar and measured after 48 hrs by Ames test; assay type: toxicity; details: salmonella enterica subsp. enterica serovar typhimurium
[21] = system: Mus musculus; experiment: Antidepressant-like activity in albino Swiss CD-1 mouse assessed as reduction in immobility at 20 mg/kg, ip pretreated for 30 mins and measured after 6 mins by force swim test relative to control; assay type: functional; design: scale not given: the % may be the effect or the level left
[22] = MRT in CD-1 mouse brain at 5 mg/kg, ip measured up to 480 mins by LC/ESI-MS/MS analysis; assay type: ADME, organism-based
[23] = Mutagenicity in Salmonella typhimurium TA98 at 50 ug/plate preincubated for 20 mins followed by addition of top agar and measured after 48 hrs by Ames test; assay type: toxicity; details: salmonella enterica subsp. enterica serovar typhimurium
[24] = target: Serotonin 2 (5-HT2) receptor (Rattus norvegicus) (UniProt P30994+P08909+P14842); experiment: Displacement of [3H]ketanserin from 5-HT2 receptor in Wistar rat brain cortex membrane at 10 uM after 40 mins by scintillation counting analysis relative to control; assay type: cell membranes
[25] = Mutagenicity in Salmonella typhimurium TA100 at 250 ug/plate preincubated for 20 mins followed by addition of top agar and measured after 48 hrs by Ames test; assay type: toxicity; details: salmonella enterica subsp. enterica serovar typhimurium
[26] = system: Mus musculus; experiment: Antidepressant-like activity in Swiss CD-1 mouse assessed as reduction in immobility at 10 mg/kg, ip pretreated for 30 mins and measured after 6 mins by force swim test; assay type: functional, organism-based
[27] = MRT in CD-1 mouse plasma at 5 mg/kg, ip measured up to 480 mins by LC/ESI-MS/MS analysis; assay type: ADME, organism-based
[28] = system: Mus musculus; experiment: Anxiolytic activity in Swiss CD-1 mouse assessed as increase in number of punished crossings at 5 mg/kg, ip administered 30 mins prior to test and measured for 60 secs by four-plate test relative to control; assay type: functional
[29] = system: Mus musculus; experiment: Antidepressant-like activity in CD-1 mouse assessed as reduction in immobility at 10 mg/kg, ip pretreated for 30 mins and measured after 6 mins by force swim test relative to control; assay type: functional; design: scale not given: the % may be the effect or the level left
[30] = target: 5-hydroxytryptamine receptor 2A (Homo sapiens, UniProt P28223); experiment: Displacement of [3H]-ketanserin from human 5-HT2A receptor expressed in CHO-K1 cell membranes after 60 mins by microbeta scintillation counting analysis
[31] = system: Mus musculus; experiment: Antidepressant-like activity in albino Swiss CD-1 mouse assessed as reduction in immobility at 10 mg/kg, ip pretreated for 30 mins and measured after 6 mins by force swim test relative to control; assay type: functional; design: scale not given: the % may be the effect or the level left
[32] = Mutagenicity in Salmonella typhimurium TA98 at 250 ug/plate preincubated for 20 mins followed by addition of top agar and measured after 48 hrs by Ames test; assay type: toxicity; details: salmonella enterica subsp. enterica serovar typhimurium
[33] = Mutagenicity in Salmonella typhimurium TA102 at 250 ug/plate preincubated for 20 mins followed by addition of top agar and measured after 48 hrs by Ames test; assay type: toxicity; details: salmonella enterica subsp. enterica serovar typhimurium
[34] = Mutagenicity in Salmonella typhimurium TA102 at 500 ug/plate preincubated for 20 mins followed by addition of top agar and measured after 48 hrs by Ames test; assay type: toxicity; details: salmonella enterica subsp. enterica serovar typhimurium
[35] = Mutagenicity in Salmonella typhimurium TA98 at 500 ug/plate preincubated for 20 mins followed by addition of top agar and measured after 48 hrs by Ames test; assay type: toxicity; details: salmonella enterica subsp. enterica serovar typhimurium
[36] = Mutagenicity in Salmonella typhimurium TA98 at 2.5 ug/plate preincubated for 20 mins followed by addition of top agar and measured after 48 hrs by Ames test; assay type: toxicity; details: salmonella enterica subsp. enterica serovar typhimurium
[37] = system: Mus musculus; experiment: Anxiolytic activity in albino Swiss CD-1 mouse assessed as increase in number of punished crossings at 5 mg/kg, ip administered 30 mins prior to test by four-plate test relative to control; assay type: functional
[38] = system: Mus musculus; experiment: Anxiolytic activity in albino Swiss CD-1 mouse assessed as increase in number of punished crossings at 20 mg/kg, ip administered 30 mins prior to test by four-plate test relative to control; assay type: functional

Sequence of Serotonin 2 (5-HT2) receptor (Rattus norvegicus) (P08909 whole entry, looked up): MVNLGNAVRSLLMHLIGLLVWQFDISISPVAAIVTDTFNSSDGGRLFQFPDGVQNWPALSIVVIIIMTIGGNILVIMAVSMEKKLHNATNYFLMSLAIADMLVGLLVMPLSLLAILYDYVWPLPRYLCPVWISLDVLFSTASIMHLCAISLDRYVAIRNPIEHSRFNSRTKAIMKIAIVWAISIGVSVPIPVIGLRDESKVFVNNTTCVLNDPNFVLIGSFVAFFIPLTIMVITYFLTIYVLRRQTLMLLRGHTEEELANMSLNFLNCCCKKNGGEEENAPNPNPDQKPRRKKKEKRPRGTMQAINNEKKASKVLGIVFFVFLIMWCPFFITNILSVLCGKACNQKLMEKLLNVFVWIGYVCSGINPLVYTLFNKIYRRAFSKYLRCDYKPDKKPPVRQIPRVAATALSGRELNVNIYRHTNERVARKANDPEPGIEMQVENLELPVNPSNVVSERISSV
Sequence of Serotonin 2 (5-HT2) receptor (Rattus norvegicus) (P14842 whole entry, looked up): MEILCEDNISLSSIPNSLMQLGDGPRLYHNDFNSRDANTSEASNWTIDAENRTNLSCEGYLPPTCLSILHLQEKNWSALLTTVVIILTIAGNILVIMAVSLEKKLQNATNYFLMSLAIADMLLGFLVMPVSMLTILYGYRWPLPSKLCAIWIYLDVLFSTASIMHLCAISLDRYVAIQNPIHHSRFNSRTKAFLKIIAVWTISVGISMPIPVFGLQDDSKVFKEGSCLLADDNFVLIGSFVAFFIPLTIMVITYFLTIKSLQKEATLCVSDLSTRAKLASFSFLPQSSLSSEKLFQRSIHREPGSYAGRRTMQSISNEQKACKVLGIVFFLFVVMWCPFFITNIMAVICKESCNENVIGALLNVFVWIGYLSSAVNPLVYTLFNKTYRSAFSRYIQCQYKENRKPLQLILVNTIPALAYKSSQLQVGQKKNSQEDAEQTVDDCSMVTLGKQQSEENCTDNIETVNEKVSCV
Sequence of Serotonin 2 (5-HT2) receptor (Rattus norvegicus) (P30994 whole entry, looked up): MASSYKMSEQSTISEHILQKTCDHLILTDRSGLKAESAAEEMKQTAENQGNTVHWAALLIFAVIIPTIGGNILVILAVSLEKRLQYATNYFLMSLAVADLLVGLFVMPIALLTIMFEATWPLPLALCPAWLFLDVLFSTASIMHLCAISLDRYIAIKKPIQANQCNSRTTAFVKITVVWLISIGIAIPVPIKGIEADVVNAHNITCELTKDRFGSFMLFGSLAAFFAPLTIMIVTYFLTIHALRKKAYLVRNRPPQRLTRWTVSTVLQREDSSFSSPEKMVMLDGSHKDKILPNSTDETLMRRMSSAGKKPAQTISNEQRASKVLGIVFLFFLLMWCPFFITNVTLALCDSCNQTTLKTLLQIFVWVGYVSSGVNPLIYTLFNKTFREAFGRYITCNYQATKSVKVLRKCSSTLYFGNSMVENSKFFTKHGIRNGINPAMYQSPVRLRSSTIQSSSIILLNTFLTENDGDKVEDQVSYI
Sequence of 5-hydroxytryptamine receptor 2A (P28223 whole entry): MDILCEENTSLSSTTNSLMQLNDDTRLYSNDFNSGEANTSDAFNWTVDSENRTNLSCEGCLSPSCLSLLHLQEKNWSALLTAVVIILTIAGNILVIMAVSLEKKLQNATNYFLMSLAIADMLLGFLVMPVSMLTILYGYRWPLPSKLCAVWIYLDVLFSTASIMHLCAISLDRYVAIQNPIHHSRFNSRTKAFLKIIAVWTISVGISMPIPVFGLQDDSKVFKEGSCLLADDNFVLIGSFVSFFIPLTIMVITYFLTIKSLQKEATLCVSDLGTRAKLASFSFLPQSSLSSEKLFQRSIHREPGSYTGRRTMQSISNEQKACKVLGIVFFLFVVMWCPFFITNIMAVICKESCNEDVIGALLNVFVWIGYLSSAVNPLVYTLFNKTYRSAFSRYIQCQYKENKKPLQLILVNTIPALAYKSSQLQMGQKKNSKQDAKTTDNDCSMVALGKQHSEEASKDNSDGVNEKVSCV

Structure (SMILES): COc1ccccc1N1CCN(Cc2cccc3c(=O)c4ccccc4oc23)CC1
- inhibition [24]: 70%

Structure (SMILES): CN1CCN(Cc2cccc3c(=O)c4ccc(Cl)cc4oc23)CC1.Cl.Cl
- Activity [28]: 100%
- Activity [21]: 28%

Structure (SMILES): COc1ccc2c(=O)c3cccc(CN4CCN(c5ccccc5)CC4)c3oc2c1
- inhibition [24]: 91%

Structure (SMILES): [N-]=[N+]=[N-].[Na+] [SODIUM AZIDE]
- Activity_index [14]: 2.26

Structure (SMILES): O=c1c2ccccc2oc2c(CN3CCN(c4ccccc4)CC3)cccc12
- inhibition [24]: 88%

Structure (SMILES): Nc1ccc([N+](=O)[O-])cc1N
- Activity_index [36]: 10.79

Structure (SMILES): COc1ccc2c(=O)c3cccc(CN4CCN(c5ccccc5OC)CC4)c3oc2c1.Cl
- Activity [29]: 24%
- Ki [30]: 2180 nM

Structure (SMILES): Cl.Cl.O=c1c2ccc(Cl)cc2oc2c(CN3CCN(CCO)CC3)cccc12
- Activity [31]: 30%

Second part, led by results:

- half-life [1]: 126 min
- Kp at 8 h [2]: 31.6
- Cmax [5]: 3690 ng/mL
- Tmax [6]: 30 min
- Tmax [8]: 15 min
- CL/F [9]: 226 mL/min/kg
- Cmax [10]: 136 ng/mL
- Vd/F [12]: 41.3 L/kg
- Retention_time [13]: 4.64 min
- AUCt [16]: 633023 ng·min/g
- AUC(0-t) at 8 h [18]: 334 ng·h/mL
- half-life [19]: 159 min
- MRT [22]: 152 min
- inhibition [24]: 50%
- MRT [27]: 129 min
Structure (SMILES): CN1CCN(Cc2ccc3oc4ccc(Cl)cc4c(=O)c3c2)CC1
- Activity_index [3]: 0.43
- Activity [4]: 37.8%
- Activity_index [7]: 1.04
- Activity_index [11]: Dose-dependent effect
- Activity_index [14]: 1.21
- Activity_index [15]: 0.86
- Activity_index [17]: 2.93
- Activity_index [20]: 1.04
- Activity [21]: 24.7%
- Activity_index [23]: 0.78
- Activity_index [25]: 2.08
- Activity [26]: inactive

- inhibition [24]: 41%
Structure (SMILES): COc1ccc2c(=O)c3cccc(CN4CCN(Cc5ccccc5)CC4)c3oc2c1

- inhibition [24]: 39%
Structure (SMILES): O=c1c2ccc(Cl)cc2oc2ccc(CN3CCN(CCO)CC3)cc12

- inhibition [24]: 3%
Structure (SMILES): CCOC(=O)N1CCN(Cc2cccc3c(=O)c4ccccc4oc23)CC1

- Ki [30]: 561 nM
Structure (SMILES): COc1ccc2c(=O)c3cc(CN4CCN(c5ccccc5OC)CC4)ccc3oc2c1.Cl
- Activity [29]: 32%

- half-life [1]: 48.3 min
- Kp at 8 h [2]: 4.85
- Cmax [5]: 2630 ng/mL
- Tmax [6]: 15 min
- Tmax [8]: 15 min
- CL/F [9]: 386 mL/min/kg
- Cmax [10]: 462 ng/mL
- Vd/F [12]: 26.9 L/kg
- Retention_time [13]: 3.05 min
- AUCt [16]: 62578 ng·min/g
- AUC(0-t) at 8 h [18]: 215 ng·h/mL
- half-life [19]: 143 min
- MRT [22]: 24.1 min
- inhibition [24]: 0%
- MRT [27]: 40.3 min
Structure (SMILES): Cl.Cl.O=c1c2ccccc2oc2c(CN3CCN(CCO)CC3)cccc12
- Activity [31]: 25.6%
- Activity_index [3]: 0.79
- Activity_index [32]: 0.52
- Activity [4]: 38.1%
- Activity_index [33]: 0.39
- Activity_index [7]: 1.34
- Activity_index [14]: 0.69
- Activity_index [15]: 0.54
- Activity_index [34]: 0.26
- Activity_index [17]: 0.31
- Activity_index [20]: 0.74
- Activity_index [23]: 0.86
- Activity_index [35]: 0.72
- Activity_index [25]: 0.46

- inhibition [24]: 43%
Structure (SMILES): O=c1c2cc(Cl)ccc2oc2ccc(CN3CCN(CCO)CC3)cc12

- inhibition [24]: 75%
Structure (SMILES): COc1ccc(OCCCN2CCN(Cc3ccc4oc5cc(OC)ccc5c(=O)c4c3)CC2)cc1

- inhibition [24]: 38%
Structure (SMILES): COc1ccc(OCCCN2CCN(Cc3cccc4c(=O)c5ccc(OC)cc5oc34)CC2)cc1

- half-life [1]: 184 min
- Kp at 8 h [2]: 2.86
- Cmax [5]: 936 ng/mL
- Tmax [6]: 30 min
- Tmax [8]: 15 min
- CL/F [9]: 165 mL/min/kg
- Cmax [10]: 468 ng/mL
- Vd/F [12]: 43.8 L/kg
- Retention_time [13]: 4.12 min
- AUCt [16]: 82715 ng·min/g
- AUC(0-t) at 8 h [18]: 481 ng·h/mL
- half-life [19]: 72 min
- MRT [22]: 74.6 min
- inhibition [24]: 22%
- MRT [27]: 60.5 min
Structure (SMILES): CCOC(=O)N1CCN(Cc2cccc3c(=O)c4ccc(OC)cc4oc23)CC1.Cl.Cl
- Activity [31]: 50.2%
- Activity_index [3]: 0.61
- Activity_index [32]: 0.72
- Activity_index [33]: 1.3
- Activity [37]: 70.1%
- Activity_index [7]: 0.76
- Activity [38]: 55.3%
- Activity_index [14]: 0.68
- Activity_index [15]: 0.77
- Activity_index [34]: 0.87
- Activity_index [17]: 0.34
- Activity_index [20]: 0.82
- Activity_index [23]: 0.79
- Activity_index [35]: 1
- Activity_index [25]: 0.42

- inhibition [24]: 75%
Structure (SMILES): O=c1c2ccc(Cl)cc2oc2c(CN3CCN(c4ccccc4)CC3)cccc12
